This note sets out measurements from US9682978B2, “2,6,7 substituted purines as HDM2 inhibitors” (Merck Sharp & Dohme Corp., priority 2013, dated 2017).

The target in this assay is T1, HDM2 (Homo sapiens, UniProt Q00987).
T1 construct: Thioredoxin (N); made in house; host or cells: E. coli BL21(DE3)Rosetta (pET32a)
As to the kind of experiment: HDM2 FRET assay (inhibition of p53 peptide binding to HDM2). The settings on record: for IC50: truncated HDM2 residues 17 to 125, 0.5 nM HDM2, 3 nM FITC labeled 8-mer peptide, two hour incubation; for inhibition at 1 µM: Table 1, printed in the FRET IC50 column, at 1000 nM compound. From the text: Methods: An HDM2 FRET assay was developed to assess the compounds' inhibitory activity towards binding of p53 protein. A truncated version of HDM2 with residues 17 to 125 (containing p53 binding surface, Science (1994) 265, 346-355), with N-terminal His and Thioredoxin tag was generated in pET32a expression vector and expressed in E. coli strain BL21(DE3)Rosetta. Protein was purified using Ni-affinity chromatography, followed by size exclusion chromatography using Superdex 75 26/60 column. To assess inhibition of p53 binding to HDM2, a FITC labeled 8-mer peptide (sequence: Ac-Phe-Arg-Dpr-Ac6c-(6-Br)Trp-Glu-Glu-Leu-NH2; Anal Biochem. 2004 Aug. 1; 331(1):138-46) with strong affinity towards p53 binding pocket of HDM2 was used. The HDM2 assay buffer contained 1× Phosphate Buffered Saline (Invitrogen, Cat#14190), 0.01% BSA (Jackson ImmunoResearch, Cat#001-000-162), 0.01% Tween-20. In the 1× assay buffer recombinant HDM2 protein, peptide and Lumi4-Tb Cryptate-conjugate mouse anti-6×HIS antibody (cisbio, Cat#Tb61HISTLB) were added and transferred to ProxiPlate PLUS (PerkinElmer, Cat#6008269), containing compounds so that final DMSO concentration is 0.1%. Final concentrations of reagents in the assay wells are 0.5 nM HDM2, 0.25 nM anti HIS (Tb label) antibody and 3 nM peptide. After two hour incubation at room temperature in a humidified chamber plates were read on EnVision plate reader with the following settings: excitation: UV, […], two emission filters: 520 nm and 495 nm respectively. Ratio of em520/em495 was used to calculate % inhibition and to obtain IC50 with 4-parameter logistic equation.
IC50 DETERMINATIONS: Dose-response curves were plotted from the inhibition data, from 10 point serial dilutions of inhibitory compounds. Concentration of compound was plotted against em520/Cem495 ratio signal. To generate IC50 values, the dose-response curves were fitted to a standard sigmoidal curve and IC50 values were derived by nonlinear regression analysis. IC50 values in the above table are rounded to the nearest integer.

Structures are written as SMILES.

T1 sequence (Q00987 17-125): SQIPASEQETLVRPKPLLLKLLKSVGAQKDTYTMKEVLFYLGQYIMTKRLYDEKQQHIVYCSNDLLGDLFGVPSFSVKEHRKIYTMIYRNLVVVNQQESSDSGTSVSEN

For orientation: IC50 means the concentration at which inhibition is half-maximal. `CC1=C(F)CC(Cn2cnc3nc(-c4noc(=O)[nH]4)nc(N[C@H](C)C4CCC4)c32)CC1` (mixture of isomers) [Example 3.6, 3-(6-{[(1R)-1-cyclobutylethyl]amino}-7-[(3-fluoro-4-methylcyclohex-3-en-1-yl)methyl]-7H-purin-2-yl)-1,2,4-oxadiazol-5(4H)-one]: the IC50 (Table 3) turned out to be 149 nM.
For the setting “Table 3”, `CC1CCC(Cn2cnc3nc(-c4noc(=O)[nH]4)nc(N[C@H](C)C4CCC4)c32)C1` (mixture of isomers) [Example 3.9, 3-(6-{[(1R)-1-cyclobutylethyl]amino}-7-[(3-methylcyclopentyl)methyl]-7H-purin-2-yl)-1,2,4-oxadiazol-5(4H)-one] returned an IC50 of 1640 nM.
As to `CCC1CCC(Cn2cnc3nc(-c4noc(=O)[nH]4)nc(N[C@H](C)C4CCC4)c32)C1` (mixture of isomers) [Example 3.10, 3-(6-(((R)-1-cyclobutylethyl)amino)-7-((3-ethylcyclopentyl)methyl)-7H-purin-2-yl)-1,2,4-oxadiazol-5(4H)-one], the IC50 (Table 3) is 313 nM.
On the same count and under the same terms, next, `CCC1CCC(Cn2cnc3nc(C(=O)O)nc(N[C@H](C)C4CCC4)c32)C1` (single isomer, unassigned) [Example 3.11]: 677 nM; `CCC1CCC(Cn2cnc3nc(C(=O)O)nc(N[C@H](C)C4CCC4)c32)C1` (single isomer, unassigned) [Example 3.12]: 146 nM; `CCC1CCC(Cn2cnc3nc(C(=O)O)nc(N[C@H](C)C4CCC4)c32)C1` (single isomer, unassigned) [Example 3.13]: 510 nM.
On the same count and under the same terms, next, `CCC1CCC(Cn2cnc3nc(-c4noc(=O)[nH]4)nc(N[C@H](C)C4CCC4)c32)C1` (single isomer, unassigned) [Example 3.14]: 189 nM; `C[C@@H]1CC[C@@H](Cn2cnc3nc(-c4noc(=O)[nH]4)nc(-c4cccc(Cl)c4)c32)CC1(F)F` (single isomer, unassigned) [Example 3.15, 3-[6-(3-chlorophenyl)-7-{[(trans)-3,3-difluoro-4-methylcyclohexyl]methyl}-7H-purin-2-yl]-1,2,4-oxadiazol-5(4H)-one]: 430 nM; `C[C@@H]1CC[C@@H](Cn2cnc3nc(-c4noc(=O)[nH]4)nc(-c4cccc(Cl)c4)c32)CC1(F)F` (single isomer, unassigned) [Example 3.16, 3-[6-(3-chlorophenyl)-7-{[(trans)-3,3-difluoro-4-methylcyclohexyl]methyl}-7H-purin-2-yl]-1,2,4-oxadiazol-5(4H)-one]: 848 nM.
The same measure, in the same setting: the same measure for `CC([C@H]1CC[C@H](C)CC1)n1cnc2nc(-c3noc(=O)[nH]3)nc(N[C@H](C)C3CCC3)c21` (single isomer, unassigned) [Example 3.17]: 421 nM; for `C[C@@H]1CC[C@@H](Cn2cnc3nc(-c4noc(=O)[nH]4)nc(N[C@H](C)C4CCC4)c32)CC1(F)F` (stereo in doubt) [Example 3.5, 3-(6-{[(1R)-1-cyclobutylethyl]amino}-7-{[(trans)-3,3-difluoro-4-methylcyclohexyl]methyl}-7H-purin-2-yl)-1,2,4-oxadiazol-5(4H)-one]: 198 nM.
`C[C@@H](Nc1nc(C(=O)O)nc2ncn(Cc3ccc(C(F)(F)F)cc3)c12)C1CC1` [Example 1.1, 6-{[(1R)-1-cyclopropylethyl]amino}-7-[4-(trifluoromethyl)benzyl]-7H-purine-2-carboxylic acid] displayed an IC50 (Table 1) of 1140 nM.
On the same count and under the same terms, next, `C[C@@H](Nc1nc(C(=O)O)nc2ncn(C[C@H]3CC[C@H](C)CC3)c12)C1CCC1` [Example 1.2, 6-{[(1R)-1-cyclobutylethyl]amino}-7-[(trans-4-methylcyclohexyl)methyl]-7H-purine-2-carboxylic acid]: 68.5 nM.
The same measure, in the same setting: the same measure for `C[C@@H](Nc1nc(-c2nc(=O)n(C)[nH]2)nc2ncn(C[C@H]3CC[C@H](C)CC3)c12)C1CCC1` [Example 1.3, 5-(6-{[(1R)-1-cyclobutylethyl]amino}-7-[(trans-4-methylcyclohexyl)methyl]-7H-purin-2-yl)-2-methyl-1,2-dihydro-3H-1,2,4-triazol-3-one]: 71.1 nM.
Same read-out and setting: the same measure for `C[C@@H](Nc1nc(C(=O)NS(=O)(=O)N(C)C)nc2ncn(C[C@H]3CC[C@H](C)CC3)c12)C1CCC1` [Example 1.4, 6-{[(1R)-1-cyclobutylethyl]amino}-N-(dimethylsulfamoyl)-7-[(trans-4-methylcyclohexyl)methyl]-7H-purine-2-carboxamide]: 733 nM.
For the compound `C[C@H]1CC[C@H](Cn2cnc3nc(-c4noc(=O)[nH]4)nc(Oc4cccc(Cl)c4)c32)CC1` [Example 1.5, 3-{6-(3-chlorophenoxy)-7-[(trans-4-methylcyclohexyl)methyl]-7H-purin-2-yl}-1,2,4-oxadiazol-5(4H)-one], the IC50 (Table 1) amounted to 392 nM.
Same read-out and setting: next, `C[C@H]1CC[C@H](Cn2cnc3nc(-c4noc(=O)[nH]4)nc(N4CCCC(F)(F)C4)c32)CC1` [Example 1.6, 3-{6-(3,3-difluoropiperidin-1-yl)-7-[(trans-4-methylcyclohexyl)methyl]-7H-purin-2-yl}-1,2,4-oxadiazol-5(4H)-one]: 820 nM; `C[C@@H](Nc1nc(-c2noc(=O)[nH]2)nc2ncn(C[C@H]3CC[C@H](C)CC3)c12)C1CCC1` [Example 1.7, 3-(6-{[(1R)-1-cyclobutylethyl]amino}-7-[(trans-4-methylcyclohexyl)methyl]-7H-purin-2-yl)-1,2,4-oxadiazol-5(4H)-one]: 51.3 nM.
Compound `C[C@@H](Nc1nc(C(=O)O)nc2ncn(Cc3cc4ccccc4s3)c12)C1CC1` [Example 1.8, 7-(1-benzothiophen-2-ylmethyl)-6-{[(1R)-1-cyclopropylethyl]amino}-7H-purine-2-carboxylic acid] came in with an IC50 (Table 1) of 2420 nM.
The inhibition is how much of the control response was suppressed. Consider `COc1cccc(Oc2nc(-c3noc(=O)[nH]3)nc3ncn(C[C@H]4CC[C@H](C)CC4)c23)c1` [Example 1.9, 3-{6-(3-methoxyphenoxy)-7-[(trans-4-methylcyclohexyl)methyl]-7H-purin-2-yl}-1,2,4-oxadiazol-5(4H)-one], for which the inhibition at 1 µM was found to be 39%.
Consider `C[C@H]1CC[C@H](Cn2cnc3nc(-c4noc(=O)[nH]4)nc(N4CCCC(C(F)(F)F)C4)c32)CC1` (stereo partly drawn) [Example 1.10, 3-{7-[(trans-4-methylcyclohexyl)methyl]-6-[3-(trifluoromethyl)piperidin-1-yl]-7H-purin-2-yl}-1,2,4-oxadiazol-5(4H)-one], for which the inhibition at 1 µM was 37%.
`CC1CCCN(c2nc(-c3noc(=O)[nH]3)nc3ncn(C[C@H]4CC[C@H](C)CC4)c23)C1` (stereo partly drawn) [Example 1.11, 3-{7-[(trans-4-methylcyclohexyl)methyl]-6-(3-methylpiperidin-1-yl)-7H-purin-2-yl}-1,2,4-oxadiazol-5(4H)-one] returned an inhibition at 1 µM of 43%.
Still for that read-out and setting: next, `CC1(C)CCCN(c2nc(-c3noc(=O)[nH]3)nc3ncn(C[C@H]4CC[C@H](C)CC4)c23)C1` [Example 1.12, 3-{6-(3,3-dimethylpiperidin-1-yl)-7-[(trans-4-methylcyclohexyl)methyl]-7H-purin-2-yl}-1,2,4-oxadiazol-5(4H)-one]: 43%.
Regarding `C[C@@H](Nc1nc(C(=O)O)nc2ncn(Cc3ccc(C(F)(F)F)cc3)c12)C1CCC1` [Example 1.13, 6-{[(1R)-1-cyclobutylethyl]amino}-7-[4-(trifluoromethyl)benzyl]-7H-purine-2-carboxylic acid], the IC50 (Table 1) came out at 81.6 nM.
